Experimental data from patent publication US8883720B2, “Template-fixed beta-hairpin peptidomimetics with CXCR4 antagonizing activity” (Polyphor AG, priority 2008, dated 2014).
Numbered stars: 1 amine (or outer) side, 2 acyl side, 3 side chain; on linkers, the order of the positions; unused ones are H or OH. Bridge positions count the residues as written; N and C are the ends. Square brackets hold non-standard residues; d marks the D form. Peptide text beside a SMILES is read from it. Abu(3S-NH2) = C[C@H](N)[C@H](N)C(=O)O; Hpla = O=C(O)[C@@H](O)Cc1ccc(O)cc1; X1 = NCC[C@H](O[*:1])C(=O)[*:2]; Lac = C[C@H](O)C(=O)O

Legend:
human CXCR4 = target: T1, human CXCR4 (Homo sapiens, UniProt P61073); assay: Ca2+-assay: CXCR4-antagonizing activity (SDF-1 induced calcium mobilization); type: cell-based; details: mouse pre-B cell line 300-19 stably transfected with human CXCR4, read-out: IC50% [nM] ± SD, CXCR4 receptor
T1 construct: expressed in transfected cells; host or cells: mouse pre-B cell line 300-19
Text: 2.3. Ca^2+-Assay: CXCR4-Antagonizing Activity of the Depsipeptides
Increases in intracellular calcium were monitored using a Flexstation 384 (Molecular Devices, Sunnyvale, Calif.) to assay the depsipeptides for CXCR4 antagonism in a mouse pre-B cell line 300-19 stably transfected with human CXCR4 (E. Oberlin, A. Amara, F. Bachelerie, C. Bessia, J.-L. Virelizier, F. Arenzana-Seisdedos, O. Schwartz, J.-M. Heard, I. Clark-Lewis, D. F. Legler, M. Loetscher, M. Baggiolini, B. Moser, Nature 1996, 382, 833-835; M. Loetscher, T. Geiser, T. O'Reilly, R. Zwalen, M. Baggiolini, B. Moser, J. Biol. Chem. 1994, 269, 232-237; M. D'Apuuo, A. Rolink, M. Loetscher, J. A. Hoxie, I. Clark-Lewis, F. Melchors, M. Baggiolini, B. Moser, Eur. J. Immunol. 1997, 27, 1788-1793). The cells were batch loaded with the Calcium 4 Assay kit (Molecular Devices) in assay buffer (Hanks Balanced salt solution [HBSS], 20 mM HEPES, pH 7.4, 0.1% BSA) for 1 h at room temperature and labeled cells were dispensed into black well assays plates (Costar No. 3603). Calcium mobilization induced by stromal-derived factor-1 (SDF-1) was measured in the Flexstation 384 (excitation: 485 nm; emission: 525 nm) for 90 seconds. Antagonist activity of depsipeptides was determined by spiking the cells with compounds prior to SDF-1 addition. Dose response curves (compound concentration versus % maximum response for SDF-1) were determined for each antagonist and IC50 values were calculated by fitting the data to a four parameter logistic equation using SoftmaxPro 4.8 (Molecular Devices).

[1] = Plasma stability, mouse plasma; type: in vitro ADME; details: 37° C., sampled up to 240 min; for half-life at 10 μM: read-out: Plasmastability mouse pl. T1/2
Protocol: (§1) The stability of the depsipeptides in human and mouse plasma was determined by applying the following method: 315 μL/deep well of freshly thawed human plasma (Basler Blutspende-dienst) and mouse plasma (Harlan Sera-Lab, UK), respectively, were spiked with 35 μL/well of compound in PBS (100 μM, triplicate) and incubated at 37° C. At t=0, 15, 30, 60, 120 and 240 min aliquots of 50 μL were transferred to filtration plate wells containing 150 μL/well of acetonitrile. Following shaking for 2 min the occurred suspensions were filtrated by vacuum and finally, 100 μL of each filtrate were transferred to a propylene microtiter plate, and analyzed by LC/MS as follows: Column: Waters, XBridge C18, mobile phases: (A) water+0.1% formic acid and (B) acetonitrile/water, 95/5 (v/v)+0.1% formic acid, gradient: 5%-100% (B) in 2 minutes, electrospray ionization, MRM detection (triple quadrupole). The peak areas were determined and triplicate values are averaged. The stability is expressed in percent of the initial value at t=0. (tx/t0×100). By using the TREND function of EXCEL (Microsoft Office 2003) T1/2 were determined.

[2] = system: human red blood cells (hRBC); type: cell-based; details: red cells of human, 1 h
Protocol: 2.5. Hemolysis The depsipeptides were tested for their hemolytic activity against human red blood cells (hRBC). Fresh hRBC were washed three times with phosphate buffered saline (PBS) and centrifuged for 10 min at 2000×g. Compounds (100 μM) were incubated with 20% hRBC (v/v) for 1 h at 37° C. The final erythrocyte concentration was approximately 0.9×10^9 cells/mL. A value of 0% and 100% cell lyses, respectively, was determined by incubation of hRBC in the presence of PBS alone and 0.1% Triton X-100 in H2O, respectively. The samples were centrifuged, the supernatants were 20-fold diluted in PBS buffer and the optical densities (OD) were measured at 540 nm. The 100% lyses value (OD540H2O) gave an OD540 of approximately 1.3-1.8. Percent hemolysis was calculated as follows: (OD540peptide/OD540H2O)×100%.

[3] = Plasma stability, human plasma; type: in vitro ADME; details: 37° C., sampled up to 240 min; for half-life at 10 μM: read-out: Plasmastability human pl. T1/2
Protocol: as §1

in vitro = type: cell-based
Protocol: The cytotoxicity of the depsipeptides to HELA cells (Acc57) and COS-7 cells (CRL-1651) was determined using the MTT reduction assay (T. Mossman, J. Immunol. Meth. 1983, 65, 55-63; M. V. Berridge, A. S. Tan, Arch. Biochem. Biophys. 1993, 303, 474-482). Briefly, the method was as follows: 7000 HELA cells/well and 4500 COS-7 cells/well were seeded and grown in 96-well microtiter plates for 24 h at 37° C. at 5% CO2. Thereafter, time zero (Tz) was determined by MTT reduction (see below). The supernatant of the remaining wells was discarded, and fresh medium and compounds in serial dilutions (12.5, 25 and 50 μM, triplicates) were pipetted into the wells. After incubation of the cells for 48 h at 37° C. at 5% CO2 the supernatant was discarded again and 100 μL MTT reagent (0.5 mg/mL in RPMI1640 and DMEM, respectively)/well was added. Following incubation at 37° C. for 2 h the media were aspirated and the cells were spiked (100 μL isopropanol/well). The absorbance of the solubilized formazan was measured at 595 nm (OD595peptide). For each concentration averages were calculated from triplicates. The percentage of growth was calculated as follows: (OD595peptide-OD595Tz-OD595Empty well)/(OD595Tz-OD595Empty well)×100%. The GI50 (Growth Inhibition) concentrations were calculated for each depsipeptide by using a trend line function for the concentrations (50, 25, 12.5 and 0 μM), the corresponding percentages and the value 50, (=TREND (C50:C0, %50:%0, 50).

T1 sequence (P61073 whole entry): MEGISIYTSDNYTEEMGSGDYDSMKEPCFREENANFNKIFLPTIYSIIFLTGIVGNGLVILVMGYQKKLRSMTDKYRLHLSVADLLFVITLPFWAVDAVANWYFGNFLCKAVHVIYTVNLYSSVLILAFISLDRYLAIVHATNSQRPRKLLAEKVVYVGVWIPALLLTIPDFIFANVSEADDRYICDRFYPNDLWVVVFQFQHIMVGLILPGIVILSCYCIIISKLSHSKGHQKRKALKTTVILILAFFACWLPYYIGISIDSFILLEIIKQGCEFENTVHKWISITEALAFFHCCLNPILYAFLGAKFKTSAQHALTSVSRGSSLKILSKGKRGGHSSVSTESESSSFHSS

Compound	IC50 (human CXCR4) [nM]	half-life at 10 μM [1] [h]	half-life at 10 μM [3] [h]	GI50 at 48 h (in vitro; African green monkey) [µM]	GI50 at 48 h (in vitro; human) [µM]	Plasmastability mouse pl. T1/2 [1] [h]	Plasmastability human pl. T1/2 [3] [h]	Hemolysis at 100 μM [2] [%]
C[C@@H]1NC(=O)[C@H](CCCNC(=N)N)NC(=O)[C@@H]2CSSC[C@H](NC(=O)[C@H](Cc3ccc(O)cc3)NC(=O)[C@H](CCCNC(=N)N)NC(=O)[C@H]([C@H](C)N)NC(=O)[C@H]3CCCN3C1=O)C(=O)N[C@@H](Cc1ccc(O)cc1)C(=O)N[C@@H](CCC(N)=O)C(=O)N[C@@H](CCCCN)C(=O)N1CCC[C@@H]1C(=O)N1CCC[C@H]1C(=O)N[C@@H](Cc1ccc(O)cc1)C(=O)N[C@@H](Cc1c[nH]cn1)C(=O)O[C@@H](C)C(=O)N2 [Example 9] (cyclo(YH[Lac]CRA[dP][Abu(3S-NH2)]RYCYQK[dP]P); disulfide 4-11)	20.8 ± 8.3	1.23	1.42	> 50	> 50			0.4
C[C@@H]1NC(=O)[C@H](CCN)OC(=O)[C@H](Cc2ccc(O)cc2)NC(=O)[C@@H]2CCCN2C(=O)[C@H]2CCCN2C(=O)[C@H](CCCCN)NC(=O)[C@H](CCC(N)=O)NC(=O)[C@H](Cc2ccc(O)cc2)NC(=O)[C@@H]2CSSC[C@H](NC1=O)C(=O)N[C@@H](CO)C(=O)N[C@@H](C)C(=O)N1CCC[C@@H]1C(=O)N[C@@H]([C@H](C)N)C(=O)N[C@@H](CCCNC(=N)N)C(=O)N[C@@H](Cc1ccc(O)cc1)C(=O)N2 [Example 6] (cyclo(Y[X1]ACSA[dP][Abu(3S-NH2)]RYCYQK[dP]P); disulfide 4-11)	13.5 ± 5	0.0717	0.07	> 50	> 50			1.0
C[C@@H]1NC(=O)[C@H](Cc2c[nH]cn2)NC(=O)[C@H](Cc2ccc(O)cc2)NC(=O)[C@@H]2CCCN2C(=O)[C@H]2CCCN2C(=O)[C@H](CCN)OC(=O)[C@H](CCC(N)=O)NC(=O)[C@H](Cc2ccc(O)cc2)NC(=O)[C@@H]2CSSC[C@H](NC1=O)C(=O)N[C@@H](CCCNC(=N)N)C(=O)N[C@@H](C)C(=O)N1CCC[C@@H]1C(=O)N[C@@H]([C@H](C)N)C(=O)N[C@@H](CCCNC(=N)N)C(=O)N[C@@H](Cc1ccc(O)cc1)C(=O)N2 [Example 8] (cyclo(YHACRA[dP][Abu(3S-NH2)]RYCYQ[X1][dP]P); disulfide 4-11)	82.4 ± 12.8			> 50	> 50			0.4
C[C@@H]1NC(=O)[C@H](Cc2c[nH]cn2)NC(=O)[C@H](Cc2ccc(O)cc2)NC(=O)[C@@H]2CCCN2C(=O)[C@H]2CCCN2C(=O)[C@H](CCN)OC(=O)[C@@H](CCC(N)=O)NC(=O)[C@H](Cc2ccc(O)cc2)NC(=O)[C@@H]2CSSC[C@H](NC1=O)C(=O)N[C@@H](CCCNC(=N)N)C(=O)N[C@@H](C)C(=O)N1CCC[C@@H]1C(=O)N[C@@H]([C@H](C)N)C(=O)N[C@@H](CCCNC(=N)N)C(=O)N[C@@H](Cc1ccc(O)cc1)C(=O)N2 [Example 10] (cyclo(YHACRA[dP][Abu(3S-NH2)]RYCY[dQ][X1][dP]P); disulfide 4-11)	16.6 ± 1.5	0.0883	0.085	> 50	> 50			0.3

Now from value to compound, other results behind:

IC50 (human CXCR4) [nM]	half-life at 10 μM [1] [h]	half-life at 10 μM [3] [h]	GI50 at 48 h (in vitro; African green monkey) [µM]	GI50 at 48 h (in vitro; human) [µM]	Plasmastability mouse pl. T1/2 [1] [h]	Plasmastability human pl. T1/2 [3] [h]	Compound	Hemolysis at 100 μM [2] [%]
2.7 ± 1.4	2.27	1.35	> 50	> 50			C[C@@H]1NC(=O)[C@H](Cc2c[nH]cn2)NC(=O)[C@H](Cc2ccc(O)cc2)NC(=O)[C@@H]2CCCN2C(=O)[C@H]2CCCN2C(=O)[C@H](CCCCN)NC(=O)[C@H](CCC(N)=O)NC(=O)[C@H](Cc2ccc(O)cc2)OC(=O)[C@@H]2CSSC[C@H](NC1=O)C(=O)N[C@@H](CO)C(=O)N[C@@H](C)C(=O)N1CCC[C@@H]1C(=O)N[C@@H]([C@H](C)N)C(=O)N[C@@H](CCCNC(=N)N)C(=O)N[C@@H](Cc1ccc(O)cc1)C(=O)N2 [Example 3] (cyclo(YHACSA[dP][Abu(3S-NH2)]RYC[Hpla]QK[dP]P); disulfide 4-11)	0.4
2.1 ± 0.5	0.85	1.03	> 50	> 50			C[C@@H]1NC(=O)[C@H](Cc2c[nH]cn2)NC(=O)[C@H](Cc2ccc(O)cc2)NC(=O)[C@@H]2CCCN2C(=O)[C@H]2CCCN2C(=O)[C@H](CCCCN)NC(=O)[C@H](CCC(N)=O)NC(=O)[C@H](Cc2ccc(O)cc2)NC(=O)[C@@H]2CSSC[C@H](NC1=O)C(=O)N[C@H](CO)C(=O)O[C@@H](C)C(=O)N1CCC[C@@H]1C(=O)N[C@@H]([C@H](C)N)C(=O)N[C@@H](CCCNC(=N)N)C(=O)N[C@@H](Cc1ccc(O)cc1)C(=O)N2 [Example 7] (cyclo(YHAC[dS][Lac][dP][Abu(3S-NH2)]RYCYQK[dP]P); disulfide 4-11)	0.2
0.7 ± 0.7			> 50	> 50	> 4	> 4	C[C@@H]1NC(=O)[C@H](Cc2c[nH]cn2)NC(=O)[C@H](Cc2ccc(O)cc2)NC(=O)[C@@H]2CCCN2C(=O)[C@H]2CCCN2C(=O)[C@H](CCCCN)NC(=O)[C@H](CCC(N)=O)NC(=O)[C@H](Cc2ccc(O)cc2)NC(=O)[C@@H]2CSSC[C@H](NC1=O)C(=O)N[C@@H](CO)C(=O)N[C@@H](C)C(=O)N1CCC[C@@H]1C(=O)O[C@@H](CCN)C(=O)N[C@@H](CCCNC(=N)N)C(=O)N[C@@H](Cc1ccc(O)cc1)C(=O)N2 [Example 2]	0.7
3.3 ± 1.1			> 50	> 50	> 4	> 4	C[C@@H]1NC(=O)[C@H](Cc2c[nH]cn2)NC(=O)[C@H](Cc2ccc(O)cc2)OC(=O)[C@@H]2CCCN2C(=O)[C@H]2CCCN2C(=O)[C@H](CCCCN)NC(=O)[C@H](CCC(N)=O)NC(=O)[C@H](Cc2ccc(O)cc2)NC(=O)[C@@H]2CSSC[C@H](NC1=O)C(=O)N[C@@H](CO)C(=O)N[C@@H](C)C(=O)N1CCC[C@@H]1C(=O)N[C@@H]([C@H](C)N)C(=O)N[C@@H](CCCNC(=N)N)C(=O)N[C@@H](Cc1ccc(O)cc1)C(=O)N2 [Example 5] (cyclo([Hpla]HACSA[dP][Abu(3S-NH2)]RYCYQK[dP]P); disulfide 4-11)	1.5
